Measured values: patent US20230321067A1, “DOSING REGIMEN COMPRISING 3-(1-OXOISOINDOLIN-2-YL)PIPERIDINE-2,6-DIONE DERIVATIVES” (Novartis AG, priority 2020, published 2023)
Values joined by “and” are separate entries in the source; they are usually repeats but may differ in a detail not shown here. Equal entries are not always repeated. “Also recorded” adds a separate entry of the source.

Experiments:
[1] = molecular target: T1, IKZF2 (Homo sapiens, UniProt Q96SW2+Q9UKS7); experiment: Degradation of prolabel-tagged IKZF2 in HEK293T cells (FIG. 1); assay type: cell-based; design: prolabel (ProLabel enzyme-fragment tag); expressed in transfected cells; host or cells: HEK293T; conditions: HEK293T cells overexpressing prolabel-tagged target proteins, various concentrations
Excerpt: FIG. 1. is a graph showing the selectivity of Compound I-57 for the degradation of IKZF2 over the other IKAROS family members, IKZF1, IKZF4, and GSPT1 at various concentrations in HEK293T cells overexpressing prolabel-tagged target proteins.

[2] = In vitro metabolism in liver microsomes and hepatocytes across species; assay type: in vitro ADME
Protocol: In vivo in the dog, very minor amounts of the N-dealkylation product and products derived from hydrolysis of the glutarimide moiety were detected in plasma. While the contribution of CYP-mediated oxidative metabolism to systemic clearance is unknown, a preliminary assessment of the enzymes involved was conducted using human recombinant CYPs in vitro.

[3] = system: IL2 mRNA; experiment: Upregulation of IL2 mRNA in TCR-stimulated Jurkat cells (FIG. 2B); assay type: cell-based; conditions: increasing concentrations
Protocol: FIG. 2B is a graph showing the change upregulation of IL2 mRNA in TCR-stimulated Jurkat cells after IKZF2 degradation when cells were treated with increasing concentrations of Compound I-57.

[4] = molecular target: T1, IKZF2; experiment: IKZF2 degradation in vitro (FIG. 1); assay type: cell-based; design: prolabel (ProLabel enzyme-fragment tag); expressed in transfected cells; host or cells: HEK293T
Excerpt: (§1) Although the specific transcriptional targets of IKZF2 remain to be defined, IKZF2 binds to and represses transcription from the IL-2 promoter region (Baine 2013). […] Finally, an in vitro assay recapitulating hallmarks of T cell dysfunction/exhaustion, by sequential TCR stimulation of isolated primary human T cells, was used to test the hypothesis that […] would rescue the exhausted phenotype and enhance Teff cell activity. […] In addition to IKZF1, other known cereblon substrates including translation termination factor G1 to S phase transition 1 (GSPT1) are not degraded by I-57 (FIG. 1).

[5] = molecular target: T2, GSPT1 (Homo sapiens, UniProt P15170); experiment: GSPT1 degradation in vitro (FIG. 1); assay type: cell-based
T2 construct: prolabel (ProLabel enzyme-fragment tag); expressed in transfected cells; host or cells: HEK293T
Excerpt: as §1

[6] = molecular target: T1, IKZF2; experiment: IKZF2 degradation in primary human PBMCs; assay type: cell-based; design: endogenous in cells; host or cells: primary human PBMCs
Excerpt: as §1
I-57 mediated degradation of IKZF2 was assessed in primary PBMCs obtained from rabbit, dog, pig, cynomolgus monkey, and human, and in primary splenocytes of mouse and rat. […] Species-specificity due to species specific alteration CRBN primary structure have previously been described with other compounds known to interact with the CRBN ubiquitin ligase complex to elicit protein specific degradation (Krönke et al, 2015).

[7] = molecular target: T1, IKZF2; experiment: IKZF2 in tumor-infiltrating lymphocytes by IHC, hPBMC AdT model; assay type: in vivo, NSG mice with human PBMCs; design: endogenous in cells; host or cells: human lymphocytes (CD4+FOXP3+ Tregs; total tumor-infiltrating lymphocytes) from healthy-donor PBMC transferred into NSG mice; conditions: 24 h post the 14th dose
Protocol: IKZF2 protein levels in total tumor-infiltrating lymphocytes were also assessed by immunohistochemistry (IHC) at 24 h post the 14th dose of 1, 3 or 30 mg/kg I-57. […] Overall, IKZF2 degradation assessed by IHC was generally consistent with our findings in Tregs by flow cytometry, though dose dependency was less apparent. Together, the data support the finding of profound I-57-mediated IKZF2 degradation in tumor-infiltrating lymphocytes (FIG. 8A and FIG. 8B).

[8] = system: IKZF2; experiment: Single oral dose PD in cynomolgus monkey: IKZF2 expression in T cells from PBMCs by flow cytometry; assay type: in vivo
Protocol: The PK/PD relationship of I-57 was examined in cynomolgus monkeys after a single oral dose of 0.01, 0.1 or 1 mg/kg. I-57 plasma concentration and IKZF2 expression (as determined by flow cytometry) in FOXP3+ T cells from PBMCs were determined (FIG. 4 and FIG. 5).
Decreased (percentage change) IKZF2 positive […] cells, as determined by flow cytometry, were detectable at 4h post dose in the 1 mg/kg and 0.1 mg/kg groups, reaching maximum at 12-24 hrs post-dose and maintaining this maximum for 12-24 hrs.

[9] = Toxicology in rats (5-day and 4-week GLP studies); assay type: in vivo
Excerpt: The non-clinical safety profile of I-57 was established in vitro, and in vivo in rats and cynomolgus monkeys in studies up to 4-weeks duration. Based on the outcome of these studies, QTc interval prolongation was identified as the principal safety signal for I-57. There were other toxicities such as diarrhea and vomiting in monkeys, and mortality, clinical signs and target organ toxicities in rats; however, these occurred at exposures far above those expected to result in clinical activity.
Clinical signs, decreases in body weight and food consumption, and clinical pathology changes reflecting inflammation, renal and liver injury, and stress were generally evident in the pre-terminal animals. Kidney toxicity was evident in rats at doses >100 mg/kg/day and was characterized by increased weight, hematuria, proteinuria, with or without increased blood urea and creatinine, degeneration, regeneration and inflammation at 300 mg/kg/day.

[10] = molecular target: T1, IKZF2; experiment: IKZF2 protein levels in total tumor-infiltrating lymphocytes by immunohistochemistry, hPBMC AdT model with MDA-MB231 xenografts (FIG. 8A, 8B); assay type: in vivo; design: endogenous in cells; host or cells: primary human PBMCs; conditions: 24 h post the 14th daily dose
Protocol: FIG. 6 is a pictorial representation of the multi-dose PK/PD study design in the human PBMC adoptive transfer mouse model harboring MDA-MB231 xenografts. Fourteen consecutive daily doses of Compound I-57 was administered at 0.3 mg/kg, 1 mg/kg, 3 mg/kg or 30 mg/kg.
FIG. 8A is a bar graph showing the change in the IKZF2 protein levels in total tumor-infiltrating lymphocytes by immunohistochemistry (IHC) at 24 h post the 14th daily dose of 1, 3 or 30 mg/kg Compound I-57.

[11] = Phototoxic potential

T1 sequence (Q9UKS7 whole entry, the tested form may be a part): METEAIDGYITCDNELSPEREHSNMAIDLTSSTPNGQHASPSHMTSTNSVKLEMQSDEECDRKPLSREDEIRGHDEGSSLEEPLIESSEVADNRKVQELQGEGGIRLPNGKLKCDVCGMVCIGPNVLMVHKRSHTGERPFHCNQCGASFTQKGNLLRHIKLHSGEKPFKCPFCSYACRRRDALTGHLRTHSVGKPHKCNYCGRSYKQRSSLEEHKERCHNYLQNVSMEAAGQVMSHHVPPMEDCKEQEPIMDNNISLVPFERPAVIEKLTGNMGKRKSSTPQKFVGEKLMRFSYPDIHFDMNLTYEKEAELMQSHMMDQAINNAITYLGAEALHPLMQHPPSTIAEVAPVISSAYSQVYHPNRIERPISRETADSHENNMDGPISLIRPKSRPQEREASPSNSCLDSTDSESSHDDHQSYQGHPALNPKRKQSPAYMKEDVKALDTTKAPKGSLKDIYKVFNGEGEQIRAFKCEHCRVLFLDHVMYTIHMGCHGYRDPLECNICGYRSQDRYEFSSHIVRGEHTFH
T1 sequence (Q96SW2 whole entry, the tested form may be a part): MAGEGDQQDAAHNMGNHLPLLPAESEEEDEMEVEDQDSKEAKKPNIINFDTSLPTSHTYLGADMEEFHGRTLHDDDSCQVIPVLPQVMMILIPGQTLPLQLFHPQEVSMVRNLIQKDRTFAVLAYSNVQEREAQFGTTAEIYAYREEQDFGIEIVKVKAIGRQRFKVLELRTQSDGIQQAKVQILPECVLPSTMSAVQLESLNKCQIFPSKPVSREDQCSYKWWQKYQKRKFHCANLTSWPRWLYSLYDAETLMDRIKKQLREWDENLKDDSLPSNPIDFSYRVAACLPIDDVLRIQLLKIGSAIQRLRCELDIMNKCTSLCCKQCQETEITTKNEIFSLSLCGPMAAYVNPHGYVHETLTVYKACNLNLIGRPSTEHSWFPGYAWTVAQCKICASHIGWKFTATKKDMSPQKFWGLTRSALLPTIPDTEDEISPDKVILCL
T1 sequence (Q16531 whole entry partner, the tested form may be a part): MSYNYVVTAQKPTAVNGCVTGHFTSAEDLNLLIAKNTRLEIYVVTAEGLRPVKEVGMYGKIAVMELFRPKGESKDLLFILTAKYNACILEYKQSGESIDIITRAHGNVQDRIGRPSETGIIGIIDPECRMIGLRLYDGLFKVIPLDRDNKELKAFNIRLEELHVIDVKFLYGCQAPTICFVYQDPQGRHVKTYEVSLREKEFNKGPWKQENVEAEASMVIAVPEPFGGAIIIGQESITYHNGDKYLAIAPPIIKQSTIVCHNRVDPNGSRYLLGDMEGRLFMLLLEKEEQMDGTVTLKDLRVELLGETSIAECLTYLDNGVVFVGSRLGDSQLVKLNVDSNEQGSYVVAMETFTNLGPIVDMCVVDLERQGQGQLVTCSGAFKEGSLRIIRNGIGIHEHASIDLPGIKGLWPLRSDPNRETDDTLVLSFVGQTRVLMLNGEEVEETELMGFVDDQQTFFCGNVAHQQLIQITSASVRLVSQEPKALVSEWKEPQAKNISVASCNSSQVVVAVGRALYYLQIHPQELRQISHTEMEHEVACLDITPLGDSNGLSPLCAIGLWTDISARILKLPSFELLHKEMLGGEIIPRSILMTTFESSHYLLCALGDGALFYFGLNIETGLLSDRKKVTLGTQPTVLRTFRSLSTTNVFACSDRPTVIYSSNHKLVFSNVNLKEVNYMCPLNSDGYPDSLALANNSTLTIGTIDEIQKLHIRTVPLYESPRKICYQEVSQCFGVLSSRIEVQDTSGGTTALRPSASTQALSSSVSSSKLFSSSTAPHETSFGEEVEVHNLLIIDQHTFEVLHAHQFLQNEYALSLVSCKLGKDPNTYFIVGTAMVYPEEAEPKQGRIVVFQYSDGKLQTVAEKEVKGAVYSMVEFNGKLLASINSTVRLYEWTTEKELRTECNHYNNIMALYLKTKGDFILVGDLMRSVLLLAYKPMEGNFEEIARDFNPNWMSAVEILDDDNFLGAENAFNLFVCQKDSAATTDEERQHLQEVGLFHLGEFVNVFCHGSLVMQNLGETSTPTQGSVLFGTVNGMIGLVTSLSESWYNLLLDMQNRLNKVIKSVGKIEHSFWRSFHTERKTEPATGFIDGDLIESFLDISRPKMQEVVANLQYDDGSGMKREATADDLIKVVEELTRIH
T2 sequence (Q96SW2 whole entry partner, the tested form may be a part): as the sequence (Q96SW2 whole entry, the tested form may be a part) above
T2 sequence (Q16531 whole entry partner, the tested form may be a part): as the sequence (Q16531 whole entry partner, the tested form may be a part) above
T2 sequence (P15170 whole entry, the tested form may be a part): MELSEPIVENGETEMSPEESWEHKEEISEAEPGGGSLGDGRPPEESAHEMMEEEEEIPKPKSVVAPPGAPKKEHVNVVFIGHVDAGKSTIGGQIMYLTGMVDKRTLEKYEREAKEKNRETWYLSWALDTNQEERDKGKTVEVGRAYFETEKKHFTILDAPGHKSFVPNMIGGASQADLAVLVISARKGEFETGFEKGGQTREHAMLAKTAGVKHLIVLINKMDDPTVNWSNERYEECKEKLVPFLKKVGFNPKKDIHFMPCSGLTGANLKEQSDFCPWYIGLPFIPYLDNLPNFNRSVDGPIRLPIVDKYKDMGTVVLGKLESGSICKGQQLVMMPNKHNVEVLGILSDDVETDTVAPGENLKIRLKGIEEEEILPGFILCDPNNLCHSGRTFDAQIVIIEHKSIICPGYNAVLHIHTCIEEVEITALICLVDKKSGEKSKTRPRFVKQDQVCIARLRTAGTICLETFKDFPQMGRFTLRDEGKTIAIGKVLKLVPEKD

**Q.** For `O=C1CCC(N2Cc3cc(C4CCN(Cc5ccccc5)CC4)ccc3C2=O)C(=O)N1` (stereo not shown) [Compound I-57, 3-(5-(1-benzylpiperidin-4-yl)-1-oxoisoindolin-2-yl)piperidine-2,6-dione], which “degradation of IKZF2 and selectivity over IKZF1, IKZF4 and GSPT1” value [1] is on record?
**A.** The value was “potent and specific degrader of IKZF2”.

**Q.** And the metabolic stability [2]?
**A.** Its metabolic stability is “very stable and no appreciable metabolic turnover was observed”.

**Q.** And the “IL-2 mRNA expression” value [3]?
**A.** Its value is “expressed more IL-2 mRNA in a dose-dependent manner”.

**Q.** And the “degradation of IKZF2” value [4]?
**A.** Its value is “potent and selective degrader of IKZF2”.

**Q.** And the “degradation of GSPT1” value [5]?
**A.** The value was “not degraded”.

**Q.** And the DC50 ([6]; human PBMC, read-out: AC50 for IKZF2 degradation (converted))?
**A.** Its DC50 is ~4 nM and ~4.07 nM.

**Q.** And the “degradation of IKZF2” value ([6]; primary human PBMCs in vitro)?
**A.** The value was “potent degradation; also recorded: Degradation was observed”.

**Q.** And the “IKZF2 degradation in total tumor-infiltrating lymphocytes” value ([7]; 30 mg/kg)?
**A.** Its value is “approximately 85%”.

**Q.** What about the “IKZF2 levels in total tumor-infiltrating lymphocytes” value ([7]; all dose levels (1, 3 or 30 mg/kg)) of the same compound?
**A.** The value was “Robust reduction in IKZF2 levels”.

**Q.** And the “duration for which maximum decrease of IKZF2 positive cells was maintained” value ([8]; single oral dose)?
**A.** The value was 12 to 24 h.

**Q.** And the “recovery of IKZF2 positive cells” value ([8]; single oral dose 1 mg/kg)?
**A.** The value was “total recovery was not achieved by day 7 post-dose”.

**Q.** And the “time at which decreased IKZF2 positive cells were detectable” value ([8]; single oral dose, 1 mg/kg and 0.1 mg/kg groups, flow cytometry)?
**A.** Its value is 4 h.

**Q.** What about the “time to maximum decrease of IKZF2 positive cells” value ([8]; single oral dose, post-dose) of the same compound?
**A.** The value was 12 to 24 h.

**Q.** What about the reversibility of findings ([9]; rat, in vivo) of the same compound?
**A.** Its reversibility of findings is “fully reversed or showed ongoing recovery”.

**Q.** What about the stomach findings ([9]; rat, in vivo, 300 mg/kg/day) of the same compound?
**A.** Its stomach findings is “mucosal hyperplasia, inflammation and degeneration in the stomach”.

**Q.** What about the urinary bladder findings ([9]; rat, in vivo, 300 mg/kg/day) of the same compound?
**A.** The urinary bladder findings was “Degenerative changes were present in the urinary bladder”.

**Q.** And the “dose at which kidney toxicity was evident” value ([9]; rats)?
**A.** Its value is over 100 mg/kg/day.

**Q.** What about the “dose at which mortality occurred” value ([9]; rats, females) of the same compound?
**A.** The value was over 300 mg/kg/day.

**Q.** What about the “dose at which mortality occurred” value ([9]; rats, males) of the same compound?
**A.** Its value is 1000 mg/kg.

**Q.** What about the “maximal level of IKZF2 degradation in total tumor-infiltrating lymphocytes (IHC)” value ([10]; 30 mg/kg) of the same compound?
**A.** The value was “approximately 85%”.

**Q.** What about the “reduction in IKZF2 levels in total tumor-infiltrating lymphocytes (IHC)” value ([10]; 1, 3 and 30 mg/kg doses) of the same compound?
**A.** Its value is “Robust reduction”.

**Q.** What about the phototoxic potential [11] of the same compound?
**A.** Its phototoxic potential is “no genotoxic or phototoxic potential”.
